From patent US7696129B2, “Substituted aromatic amide derivative, intermediate thereof, agrohorticultural insecticide containing thereof and method for the use thereof” (Nihon Nohyaku Co., Ltd., priority 2001, dated 2010)

Assays:
Assay type in all cases: in vivo
[1] = test system: Diamond Back Moth (Plutella xylostella); experiment: Test Example 1: insecticidal effect on diamond back moth, immersion of Chinese cabbage seedling with eggs; conditions: 50 ppm, seedling with eggs immersed about 30 seconds, 25° C., six days after the immersion
From the text: Insecticidal Effect on Diamond Back Moth (Plutella xylostella)
Adult diamond back moths were released and allowed to oviposit on a Chinese cabbage seedling. Two days after the release, the seedling having the eggs deposited thereon was immersed for about 30 seconds in a liquid chemical prepared by diluting a preparation containing each compound listed in Tables 4 to 9 as an active ingredient to adjust the concentration to 50 ppm. After air-dryness, it was allowed to stand in a room thermostatted at 25° C. Six days after the immersion, the hatched insects were counted. The mortality was calculated according to the following equation and the insecticidal effect was judged according to the criterion shown below. The test was carried out with triplicate groups of 10 insects.

[2] = test system: Common Cutworm (Spodoptera litura); experiment: Test Example 2: insecticidal effect on common cutworm, cabbage leaf immersion; conditions: 50 ppm, cabbage leaf immersed about 30 seconds, second-instar larvae, 25° C., eight days after the inoculation
From the text: Insecticidal Effect on Common Cutworm (Spodoptera litura)
A piece of cabbage leaf (cultivar; Shikidori) was immersed for about 30 seconds in a liquid chemical prepared by diluting a preparation containing each compound listed in Tables 4 to 9 as an active ingredient to adjust the concentration to 50 ppm. After air-dryness, it was placed in a plastic Petri dish with a diameter of 9 cm and inoculated with second-instar larvae of common cutworm, after which the dish was closed and then allowed to stand in a room thermostatted at 25° C. Eight days after the inoculation, the dead and alive were counted. The mortality was calculated according to the following equation and the insecticidal effect was judged according to the criterion shown in Test Example 1. The test was carried out with triplicate groups of 10 insects.

[3] = test system: Smaller Tea Tortrix (Adxophyes sp.); experiment: Test Example 3: insecticidal effect on smaller tea tortrix, tea leaf immersion; conditions: 50 ppm, tea leaves immersed about 30 seconds, larvae, 25° C., humidity 70%, eight days after the inoculation
Experimental: Insecticidal Effect on Smaller Tea Tortrix (Adxophyes sp.)
Tea leaves were immersed for about 30 seconds in a liquid chemical prepared by diluting a preparation containing each compound listed in Tables 1 to 3 as an active ingredient to adjust the concentration to 50 ppm. After air-dryness, the tea leaves were placed in a plastic Petri dish with a diameter of 9 cm and inoculated with larvae of smaller tea tortrix, after which the dish was allowed to stand in a room thermostatted at 25° C. and having a humidity of 70%. Eight days after the inoculation, the dead and alive were counted and the insecticidal effect was judged according to the criterion shown in Test Example 1. The test was carried out with triplicate groups of 10 insects.

SMILES | Test Example 1 (insecticidal effect, mortality criterion) [1] | Test Example 2 (insecticidal effect, mortality criterion) [2] | Test Example 3 (insecticidal effect, mortality criterion) [3]
CSCC(C)(C)NC(=O)c1c(I)cccc1C(=O)Nc1ccc(CC(F)(F)F)cc1C [5-1] | A (Mortality 100%) | A (Mortality 100%) | A (Mortality 100%)
CSCC(C)(C)NC(=O)c1c(I)cccc1C(=O)Nc1ccc(CC(F)(F)F)cc1F [5-3] | A (Mortality 100%) | A (Mortality 100%) | A (Mortality 100%)
CSCC(C)(C)NC(=O)c1c(I)cccc1C(=O)Nc1ccc(CC(F)(F)F)cc1Cl [5-4] | A (Mortality 100%) | A (Mortality 100%) | A (Mortality 100%)
CSCC(C)(C)NC(=O)c1c(I)cccc1C(=O)Nc1ccc(CC(F)(F)C(F)(F)F)cc1C [5-5] | A (Mortality 100%) | A (Mortality 100%) | A (Mortality 100%)
CSCC(C)(C)NC(=O)c1c(I)cccc1C(=O)Nc1ccc(CC(F)(F)C(F)(F)F)cc1F [5-6] | A (Mortality 100%) | A (Mortality 100%) | A (Mortality 100%)
CSCC(C)(C)NC(=O)c1c(I)cccc1C(=O)Nc1ccc(CC(F)(F)C(F)(F)C(F)(F)F)cc1C [5-7] | A (Mortality 100%) | A (Mortality 100%) | A (Mortality 100%)
CSCC(C)(C)NC(=O)c1c(I)cccc1C(=O)Nc1ccc(CC(F)(F)C(F)(F)C(F)(F)C(F)(F)C(F)(F)F)cc1CC(F)(F)C(F)(F)C(F)(F)C(F)(F)C(F)(F)F [5-8] | A (Mortality 100%) | A (Mortality 100%) | A (Mortality 100%)
CC(C)NC(=O)c1c(I)cccc1C(=O)Nc1ccc(C(C(F)(F)F)C(F)(F)F)cc1 [5-9] | A (Mortality 100%) | A (Mortality 100%) | A (Mortality 100%)
CSCC(C)(C)NC(=O)c1c(I)cccc1C(=O)Nc1ccc(C(C(F)(F)F)C(F)(F)F)cc1 [5-10] | A (Mortality 100%) | A (Mortality 100%) | A (Mortality 100%)
Cc1cc(C(C(F)(F)F)C(F)(F)F)ccc1NC(=O)c1ccccc1C(=O)NC(C)C [5-11] | A (Mortality 100%) | E (Mortality 49% or less) | A (Mortality 100%)
CON=CC(C)(C)NC(=O)c1ccccc1C(=O)Nc1ccc(C(C(F)(F)F)C(F)(F)F)cc1C [5-12] | A (Mortality 100%) | E (Mortality 49% or less) | A (Mortality 100%)
CSCC(C)(C)NC(=O)c1ccccc1C(=O)Nc1ccc(C(C(F)(F)F)C(F)(F)F)cc1C [5-13] | A (Mortality 100%) | E (Mortality 49% or less) | E (Mortality 49% or less)
Cc1cc(C(C(F)(F)F)C(F)(F)F)ccc1NC(=O)c1cccc([N+](=O)[O-])c1C(=O)NC(C)C [5-14] | A (Mortality 100%) | A (Mortality 100%) | A (Mortality 100%)
Cc1cc(C(C(F)(F)F)C(F)(F)F)ccc1NC(=O)c1cccc(I)c1C(=O)NC(C)(C)CC(C)(C)C [5-23] | A (Mortality 100%) |  | A (Mortality 100%)
